Results from ChEMBL document CHEMBL5584247, “Stereochemical properties of quazepam and its affinity for the GABAA receptor” (Bioorg Med Chem Lett, 2024).
Values joined by “and” are separate entries in the source; they are usually repeats but may differ in a detail not shown here. Identical values can stand only once.

Columns and labels:
[1] = biological target: T1, GABA-A receptor; anion channel (Homo sapiens) (UniProt P14867+P47870+P18507+P28472+P48169+Q99928+Q9UN88+P34903+O00591+O14764+Q8N1C3+P18505+P78334+P47869+P31644+Q16445); assay: Inhibition of GABAA receptor (unknown origin) at 10 uM relative to control; type: protein-complex assay
[2] = biological target: T1, GABA-A receptor; anion channel (Homo sapiens); assay: Inhibition of GABAA receptor (unknown origin) at 50 uM relative to control; type: protein-complex assay

## Cc1cc(Cl)cc2c1N(CC(F)(F)F)C(=S)CN=C2c1ccccc1F
[1]
  inhibition: 24% and 17% and 26%
[2]
  inhibition: 35% and 31%
[2]; INHIBITOR
  inhibition: 53%
